Results from patent US10343992B2, “1-cyano-pyrrolidine compounds as USP30 inhibitors” (MISSION THERAPEUTICS LIMITED, priority 2015, dated 2019).

Target: USP30 (Homo sapiens (Human), UniProt Q70CQ3)
Assay: USP30 biochemical FP or FI IC50 assay
Conditions: read-out: IC50 range
Procedure: USP30 Biochemical IC50 Assay
Dilution plates were prepared at 21 times the final concentration (2100 μM for a final concentration of 100 μM) in 50% DMSO in a 96-well polypropylene V-bottom plate (Greiner #651201). A typical 8-point dilution series would be 100, 30, 10, 3, 1, 0.3, 0.1, 0.03 μM final. Reactions were performed in duplicate in black 384 well plates (small volume, Greiner 784076) in a final reaction volume of 21 μl. Either 1 μl of 50% DMSO or diluted compound was added to the plate. USP30 was diluted in reaction buffer (40 mM Tris, pH 7.5, 0.005% Tween 20, 0.5 mg/ml BSA, 5 mM—beta-mercaptoethanol) to the equivalent of 0.05 μl/well and 10 μl of diluted USP30 was added to the compound. Enzyme and compound were incubated for 30 min at room temp. Reactions were initiated by the addition of 50 nM of TAMRA labelled peptide linked to ubiquitin via an iso-peptide bond as fluorescence polarisation substrate. Reactions were read immediately after addition of substrate and following a 2 hr incubation at room temperature. Readings were performed on a Pherastar Plus (BMG Labtech). λ Excitation 540 nm; λ Emission 590 nm.
USP30 Biochemical Fluorescence Intensity IC50 Assay
Dilution plates were prepared at 21 times the final concentration (2100 μM for a final concentration of 100 μM) in 50% DMSO in a 96-well polypropylene V-bottom plate (Greiner #651201). A typical 8-point dilution series would be 100, 30, 10, 3, 1, 0.3, 0.1, 0.03 μM final. Reactions were performed in duplicate in black 384 well plates (small volume, Greiner 784076) in a final reaction volume of 21 μl.
Either 1 μl of 50% DMSO or diluted compound was added to the plate. USP30 was diluted in reaction buffer (40 mM Tris, pH 7.5, 0.005% Tween 20, 0.5 mg/ml BSA, 5 mM—beta-mercaptoethanol) to the equivalent of 0.001 μl/well and 10 μl of diluted USP30 was added to the compound. Enzyme and compound were incubated for 30 min at room temp. Reactions were initiated by the addition of Ubiquitin-Rhodamine 110 (U-555; Boston Biochem) at a final concentration of 100 nM. Reactions were read immediately after addition of substrate and following a 2 h incubation at room temperature. Readings were performed on a Pherastar Plus (BMG Labtech). λ Excitation 487 nm; λ Emission 535 nm.

Chain of USP30 (Q70CQ3 57-517): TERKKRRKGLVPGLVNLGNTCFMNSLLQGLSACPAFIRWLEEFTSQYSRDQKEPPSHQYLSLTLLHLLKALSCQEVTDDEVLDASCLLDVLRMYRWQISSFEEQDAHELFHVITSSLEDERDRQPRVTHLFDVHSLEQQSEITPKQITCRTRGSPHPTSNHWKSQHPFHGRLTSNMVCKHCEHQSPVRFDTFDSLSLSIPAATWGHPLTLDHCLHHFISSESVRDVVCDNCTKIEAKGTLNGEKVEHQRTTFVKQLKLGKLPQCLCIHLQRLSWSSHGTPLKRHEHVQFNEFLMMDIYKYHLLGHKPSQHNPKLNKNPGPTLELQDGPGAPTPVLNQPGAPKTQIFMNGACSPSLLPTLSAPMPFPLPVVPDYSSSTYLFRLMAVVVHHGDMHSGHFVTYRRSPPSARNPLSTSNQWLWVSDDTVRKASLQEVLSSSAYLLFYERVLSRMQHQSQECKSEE

## N#CN1CCC(NC(=O)c2nc(-c3ccccc3)cs2)C1 (racemic) [Example 7, N-(1-cyanopyrrolidin-3-yl)-4-phenylthiazole-2-carboxamide]
  IC50: 100 to 1000 nM

## N#CN1CCC(NC(=O)c2cc(-c3cccc(Cl)c3)no2)C1 (racemic) [Example 8, 3-(3-chlorophenyl)-N-(1-cyanopyrrolidin-3-yl)isoxazole-5-carboxamide]
  IC50: < 100 nM

## N#CN1CCC(NC(=O)c2cn(-c3ccccc3)cn2)C1 (racemic) [Example 9, N-(1-cyanopyrrolidin-3-yl)-1-phenyl-1H-imidazole-4-carboxamide]
  IC50: 100 to 1000 nM

## N#CN1CCC(NC(=O)C2CC(=O)N(Cc3ccc(F)cc3F)C2)C1 (racemic) [Example 10, N-(1-cyanopyrrolidin-3-yl)-1-(2,4-difluorobenzyl)-5-oxopyrrolidine-3-carboxamide]
  IC50: 100 to 1000 nM

## Cc1noc(C)c1-c1ccc(C(=O)NC2CCN(C#N)C2)cc1 (racemic) [Example 12, N-(1-cyanopyrrolidin-3-yl)-4-(3,5-dimethylisoxazol-4-yl)benzamide]
  IC50: 100 to 1000 nM

## N#CN1CCC(NC(=O)c2ccc(-c3cccc(Cl)c3)cc2)C1 (racemic) [Example 13, 3′-chloro-N-(1-cyanopyrrolidin-3-yl)-[1,1′-biphenyl]-4-carboxamide]
  IC50: < 100 nM

## COc1ccccc1-c1ccc(C(=O)NC2CCN(C#N)C2)cc1 (racemic) [Example 14, N-(1-cyanopyrrolidin-3-yl)-2′-methoxy-[1,1′-biphenyl]-4-carboxamide]
  IC50: < 100 nM

## N#CN1CCC(NC(=O)c2ccc(Oc3ccccc3)cc2)C1 (racemic) [Example 15, N-(1-cyanopyrrolidin-3-yl)-4-phenoxybenzamide]
  IC50: 1000 to 10000 nM

## N#CN1CCC(NC(=O)Cc2ccc(-c3ccccc3)cc2)C1 (racemic) [Example 16, 2-([1,1′-biphenyl]-4-yl)-N-(1-cyanopyrrolidin-3-yl)acetamide]
  IC50: 1000 to 10000 nM

## N#CN1CCC(NC(=O)c2cc(-c3ccccc3)nc3ccccc23)C1 (racemic) [Example 17, N-(1-cyanopyrrolidin-3-yl)-2-phenylquinoline-4-carboxamide]
  IC50: 1000 to 10000 nM

## N#CN1CCC(NC(=O)c2ccc(N3CCC(C(N)=O)CC3)nc2)C1 (racemic) [Example 18, 6-(4-carbamoylpiperidin-1-yl)-N-(1-cyanopyrrolidin-3-yl)nicotinamide]
  IC50: 1000 to 10000 nM

## N#CN1CCC(NC(=O)c2ccc(N3CCN(c4ccc(F)cc4F)CC3)nc2)C1 (racemic) [Example 19, N-(1-cyanopyrrolidin-3-yl)-6-(4-(2,4-difluorophenyl)piperazin-1-yl)nicotinamide]
  IC50: 100 to 1000 nM

## CCOC(=O)N1CCN(c2ccc(C(=O)NC3CCN(C#N)C3)cn2)CC1 (racemic) [Example 20, ethyl 4-(5-((1-cyanopyrrolidin-3-yl)carbamoyl)pyridin-2-yl)piperazine-1-carboxylate]
  IC50: 1000 to 10000 nM

## N#CN1CCC(NC(=O)c2ccc(N3CCCC3c3cccnc3)nc2)C1 (racemic) [Example 21, N-(1-cyanopyrrolidin-3-yl)-6-(2-(pyridin-3-yl)pyrrolidin-1-yl)nicotinamide]
  IC50: 1000 to 10000 nM

## N#CN1CCC(NC(=O)c2ccc(N3CCC(c4ccncc4)CC3)nc2)C1 (racemic) [Example 23, N-(1-cyanopyrrolidin-3-yl)-6-(4-(pyridin-4-yl)piperidin-1-yl)nicotinamide]
  IC50: 100 to 1000 nM

## N#CN1CCC(NC(=O)c2cccc(N3CCc4ccccc4C3)n2)C1 (racemic) [Example 25, N-(1-cyanopyrrolidin-3-yl)-6-(3,4-dihydroisoquinolin-2(1H)-yl)picolinamide]
  IC50: 1000 to 10000 nM

## N#CN1CCC(NC(=O)c2cccc(N3CCC(Oc4ccccc4)CC3)n2)C1 (racemic) [Example 26, N-(1-cyanopyrrolidin-3-yl)-6-(4-phenoxypiperidin-1-yl)picolinamide]
  IC50: 1000 to 10000 nM

## CC(=O)N1CCCN(c2cc(C(=O)NC3CCN(C#N)C3)ccn2)CC1 (racemic) [Example 28, 2-(4-acetyl-1,4-diazepan-1-yl)-N-(1-cyanopyrrolidin-3-yl)isonicotinamide]
  IC50: 1000 to 10000 nM

## N#CN1C[C@H]2CCN(C(=O)c3cccc(-c4ccccc4)c3)[C@H]2C1 (racemic) [Example 51, rac-(3aR,6aR)-1-([1,1′-biphenyl]-3-carbonyl)hexahydropyrrolo[3,4-b]pyrrole-5(1H)-carbonitrile]
  IC50: < 100 nM

## N#CN1C[C@H]2CCN(C(=O)c3cc(-c4ccccc4)n[nH]3)[C@H]2C1 (racemic) [Example 52, rac-(3aR,6aR)-1-(3-phenyl-1H-pyrazole-5-carbonyl)hexahydropyrrolo[3,4-b]pyrrole-5(1H)-carbonitrile]
  IC50: 100 to 1000 nM

## N#CN1C[C@H]2CCN(C(=O)c3cc(-c4ccccc4)no3)[C@H]2C1 (racemic) [Example 53, rac-(3aR,6aR)-1-(3-phenylisoxazole-5-carbonyl)hexahydropyrrolo[3,4-b]pyrrole-5(1H)-carbonitrile]
  IC50: 100 to 1000 nM

## N#CN1C[C@H]2CCN(C(=O)c3cn(-c4ccccc4)cn3)[C@H]2C1 (racemic) [Example 54, rac-(3aR,6aR)-1-(1-phenyl-1H-imidazole-4-carbonyl)hexahydropyrrolo[3,4-b]pyrrole-5(1H)-carbonitrile]
  IC50: 100 to 1000 nM

## COc1ccc(-c2cc(C(=O)N3CC[C@@H]4CN(C#N)C[C@@H]43)[nH]n2)cc1 (racemic) [Example 55, rac-(3aR,6aR)-1-(3-(4-methoxyphenyl)-1H-pyrazole-5-carbonyl)hexahydropyrrolo[3,4-b]pyrrole-5(1H)-carbonitrile]
  IC50: 100 to 1000 nM

## COc1ccc(-c2cc(C(=O)N3CC[C@@H]4CN(C#N)C[C@@H]43)on2)cc1 (racemic) [Example 56, rac-(3aR,6aR)-1-(3-(4-methoxyphenyl)isoxazole-5-carbonyl)hexahydropyrrolo[3,4-b]pyrrole-5(1H)-carbonitrile]
  IC50: 100 to 1000 nM

## N#CN1C[C@H]2CCN(C(=O)c3ccc(F)c(-c4ccncc4)c3)[C@H]2C1 (racemic) [Example 57, rac-(3aR,6aR)-1-(4-fluoro-3-(pyridin-4-yl)benzoyl)hexahydropyrrolo[3,4-b]pyrrole-5(1H)-carbonitrile]
  IC50: 100 to 1000 nM

## Cn1cc(-c2cc(C(=O)N3CC[C@@H]4CN(C#N)C[C@@H]43)ccc2F)cn1 (racemic) [Example 58, rac-(3aR,6aR)-1-(4-fluoro-3-(1-methyl-1H-pyrazol-4-yl)benzoyl)hexahydropyrrolo[3,4-b]pyrrole-5(1H)-carbonitrile]
  IC50: 100 to 1000 nM

## COc1cc(C(=O)N2CC[C@@H]3CN(C#N)C[C@@H]32)ccc1-c1ccncc1Cl (racemic) [Example 59, rac-(3aR,6aR)-1-(4-(3-chloropyridin-4-yl)-3-methoxybenzoyl)hexahydropyrrolo[3,4-b]pyrrole-5(1H)-carbonitrile]
  IC50: 100 to 1000 nM

## COc1cc(C(=O)N2CC[C@@H]3CN(C#N)C[C@@H]32)ccc1-c1cnn(C)c1 (racemic) [Example 60, rac-(3aR,6aR)-1-(3-methoxy-4-(1-methyl-1H-pyrazol-4-yl)benzoyl)hexahydropyrrolo[3,4-b]pyrrole-5(1H)-carbonitrile]
  IC50: 1000 to 10000 nM

## CO[C@@H]1CCN(c2ccc(C(=O)N[C@H]3CN(C#N)C[C@@H]3C)c(F)c2)C1 (racemic) [Example 92, N-((trans)-1-cyano-4-methylpyrrolidin-3-yl)-2-fluoro-4-((R)-3-methoxypyrrolidin-1-yl)benzamide]
  IC50: 100 to 1000 nM

## C[C@@H]1[C@H](NC(=O)c2ccc(-c3ccc(F)cc3)cn2)CCN1C#N (racemic) [Example 174, N-((cis)-1-cyano-2-methylpyrrolidin-3-yl)-5-(4-fluorophenyl)picolinamide]
  IC50: 100 to 1000 nM

## C[C@H]1CN(C#N)C[C@@H]1NC(=O)c1ccc(N2CCOCC2)c(Cl)c1 (racemic) [Example 175, 3-chloro-N-((trans)-1-cyano-4-methylpyrrolidin-3-yl)-4-morpholinobenzamide]
  IC50: < 100 nM

## N#CN1C[C@H](NC(=O)c2cnc(-c3ccccc3Cl)s2)[C@@H](O)C1 (relative stereo) [Example 93, 2-(2-chlorophenyl)-N-((trans)-1-cyano-4-hydroxypyrrolidin-3-yl) thiazole-5-carboxamide]
  IC50: < 100 nM

## Cn1cc(-c2ccc(C(=O)N[C@@H]3CN(C#N)C[C@@H]3C3CC3)cc2F)cn1 (relative stereo) [Example 177, N-((cis)-1-cyano-4-cyclopropylpyrrolidin-3-yl)-3-fluoro-4-(1-methyl-1H-pyrazol-4-yl)benzamide]
  IC50: 100 to 1000 nM
